According to patent US20080033274A1, “Device and Method for Monitoring the Functioning of the Lower Esophageal Sphincter” (Altana Pharma AG, priority 2004, published 2008):

Test system: transient lower esophageal sphincter relaxations (TLESRs) in the conscious dog
Assay: Number of TLESRs (hydrogen marker gas eructations) in gastric fistula dog under barostat gastric pressure
Assay type: in vivo
Settings: 7 μmol/kg i.v., 12 mm Hg to the stomach
Description: The various aspects of the invention were studied with fistula dogs. The fistula is inserted into the stomach of the dog by methods known to the expert, for example as described in Postius S, Braeuer U. Loss of circadian rhythm in luminal acidity of canine stomach by implantation of a gastric fistula. Digestion. 1995; 56(1):3540.
The method according to the invention was used to quantify the number of transient lower esophageal sphincter relaxations (TLESRs, leading to gas refluxes) in the conscious dog, which are provoked by the introduction of hydrogen gas in the stomach. The method can be used with fasted or fed animals and it is not depending on the status of gastric acid secretion.
For the assessment of TLESRs, the gastric fistula dogs were temporarily connected via the gastric fistula to a barostat which continuously measures the gastric pressure and continuously approximates during the monitoring of the marker gas a target pressure by sucking or pumping a gas mixture of air and hydrogen, comprising 0.2-3% hydrogen, whereby 3% of hydrogen was yielding the highest sensitivity.
A target pressure was selected that causes an appropriate number of TLESRs, usually for a period of 30 min. […] The quantification of TLESRs resulting in eructations was performed by continuous collection of the gas in front of and in the middle of nose and mouth of the dog with an open measuring probe head. This gas, comprising hydrogen from the gastric gas mixture, which eructed if the dog is belching, was sucked to a hydrogen sensor (Model used: UST 2330, UST—Umweltsensortechnik GmbH, 98716 Geschwenda, Germany) registering the hydrogen concentration. Significant enhancement in hydrogen concentration in the collected gas was defined to represent a TLESR caused by an eruction. […] Some eructions occurred at 6 mm Hg and lots were measured above 12 mm Hg. However, above 12-14 mm Hg vomiting might be induced as well.
The study design was as follows: […]
0-30 minutes: detection of the number of TLESR by monitoring the concentration of hydrogen detected in the sensor […]

## NCC(CC(=O)O)c1ccc(Cl)cc1 (stereo not drawn) [Baclofen]
Time period 0-10 minutes
  Number of TLESR detected in the time period indicated: 0.75
Time period 10-20 minutes
  Number of TLESR detected in the time period indicated: 0.25
Time period 20-30 minutes
  Number of TLESR detected in the time period indicated: 1.75
